Assay results from patent US5500443A, “New benzodioxane compounds” (Adir et Compagnie, priority 1994, dated 1996).
Where a name gives a salt, the structure may show the parent alone. Read-outs that look alike come from different tables or passages of the source.

Key:
5-HT2A = target: T1, 5-HT2A (Rattus norvegicus, UniProt P14842); test: Receptor profile, binding studies (5-HT2A); conditions: Receptor Profile (pKi) 5-HT2A
T1 construct: from tissue

5-HT1A = target: T2, 5-HT1A (Rattus norvegicus, UniProt P19327); test: biochemical; conditions: binding; read-out: Receptor Profile (pKi) 5-HT1A (converted)
T2 sequence (P19327 1-422): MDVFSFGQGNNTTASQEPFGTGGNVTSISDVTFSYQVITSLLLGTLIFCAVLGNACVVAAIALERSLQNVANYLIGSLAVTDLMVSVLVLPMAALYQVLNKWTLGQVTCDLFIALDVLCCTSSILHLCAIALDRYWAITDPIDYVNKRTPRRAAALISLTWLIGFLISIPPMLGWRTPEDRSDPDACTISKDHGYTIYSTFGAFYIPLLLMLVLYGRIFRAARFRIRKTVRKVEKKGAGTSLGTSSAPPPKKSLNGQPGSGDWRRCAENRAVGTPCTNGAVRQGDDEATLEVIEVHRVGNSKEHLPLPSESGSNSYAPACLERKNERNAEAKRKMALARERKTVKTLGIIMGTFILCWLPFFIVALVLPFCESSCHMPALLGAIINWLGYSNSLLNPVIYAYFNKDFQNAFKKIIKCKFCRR

α1 = test: Receptor profile, binding studies (α1)
[1] = system: mesolimbic dopaminergic pathways; test: Test of the motor activity induced by amphetamine; format: in vivo, male Wistar rats; conditions: for ED50: Rattus norvegicus, sc, read-out: Locomotion (Amphetamine) DI50
Procedure: motor activity inhibition induced by amphetamine (which increases the release of catecholamines) according to the procedure described by A. A. Mengens, cited above.
(§1) An activity in these tests appears to reflect blocking of the mesolimbic dopaminergic pathways, which are believed to be hyperactive in schizophrenics, as described by P. C.
Male Wistar rats (200-220 g) were placed in transparent polycarbonate individual cages the night before the test. The locomotor activity was recorded using photoelectric cells (Systeme Lablinc, Coulbourn) connected via an interface to a microcomputer. There are two transverse banks of photoelectric cells per cage. The test takes place under artificial light, starting from 1.00 p.m., during daylight hours. The product or solvent was administered to the animal subcutaneously, 30 minutes before the start of the test.

D2 = D2 (Rattus norvegicus, UniProt P61169); test: biochemical; conditions: binding; read-out: Receptor Profile (pKi) D2 (converted)
D2, sequence (P61169 whole entry): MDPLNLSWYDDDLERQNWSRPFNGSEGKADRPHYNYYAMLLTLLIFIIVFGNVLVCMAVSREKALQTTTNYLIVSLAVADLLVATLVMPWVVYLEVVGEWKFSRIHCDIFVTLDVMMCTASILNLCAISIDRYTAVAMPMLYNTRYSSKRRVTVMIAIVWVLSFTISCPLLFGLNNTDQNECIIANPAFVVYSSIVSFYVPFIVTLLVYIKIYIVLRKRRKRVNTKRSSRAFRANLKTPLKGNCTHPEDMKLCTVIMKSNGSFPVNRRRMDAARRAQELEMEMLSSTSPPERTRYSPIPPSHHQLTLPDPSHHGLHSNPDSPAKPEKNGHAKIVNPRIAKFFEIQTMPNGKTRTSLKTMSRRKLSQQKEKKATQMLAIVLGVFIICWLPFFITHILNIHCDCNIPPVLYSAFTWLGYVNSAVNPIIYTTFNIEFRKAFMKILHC

[2] = Induction of catalepsy in rats; design: species or system male Wistar rats; conditions: rat, in vivo, sc
Text: In order to determine the potential of the compounds of the invention to generate a syndrome of extrapyramidal type, the capacity to induce a catalepsy in rats was examined. This phenomenon is due to an antagonism of the nigrostriatal dopaminergic transmission.
Male Wistar rats (220-240 g) were placed in individual cages and food was witheld the night before the test. The test used to evaluate the cataleptogenic properties of a product consists in placing each of the animal's hind feet on the forefoot located on the same side and in measuring the time in seconds for which the animal kept this "crossed feet" position, up to 30 seconds, as described by P. C. […] Each animal underwent three tests, at intervals of one minute; the average value of the three tests then represents the catalepsy time of the animal, which is used for the statistical analysis. The product to be tested was administered to the animal subcutaneously, 30 minutes before the test.
The effective cataleptogenic dose ED5.sbsb.0 is that which induces catalepsy for an average duration of 15 seconds, that is to say for 50% of the maximum duration of the test (30 seconds).

5-HT2C = target: T3, 5-HT2C (Sus scrofa, UniProt K7GSR7); test: Receptor profile, binding studies (5-HT2C); conditions: Receptor Profile (pKi) 5-HT2C
T3 construct: from tissue
T3 sequence (K7GSR7 1-457): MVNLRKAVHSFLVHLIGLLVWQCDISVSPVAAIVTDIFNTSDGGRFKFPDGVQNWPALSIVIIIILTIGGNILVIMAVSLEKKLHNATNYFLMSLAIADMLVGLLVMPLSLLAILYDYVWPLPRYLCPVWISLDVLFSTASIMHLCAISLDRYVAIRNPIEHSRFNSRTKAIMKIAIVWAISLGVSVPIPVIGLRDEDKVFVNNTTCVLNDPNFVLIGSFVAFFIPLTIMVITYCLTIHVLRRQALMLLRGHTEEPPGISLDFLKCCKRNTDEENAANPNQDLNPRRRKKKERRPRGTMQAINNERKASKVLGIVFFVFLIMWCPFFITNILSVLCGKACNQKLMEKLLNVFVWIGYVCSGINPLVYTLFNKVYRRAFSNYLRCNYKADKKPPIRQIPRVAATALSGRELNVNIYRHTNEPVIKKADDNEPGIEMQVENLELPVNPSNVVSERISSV

[3] = system: mesolimbic dopaminergic pathways; test: Verticalization test using apomorphine in mice; format: in vivo, male CF (Charles River) mice; conditions: for ED50: Mus musculus, sc, read-out: Verticalization (Apomorphine) DI50
Procedure: as §1
The experiment was performed on male CF (Charles River) mice of average weight 25 g. thirty minutes before the start of the test, each mouse was placed in a cylindrical cage (O12 cm 14 cm), with vertical metal bars and a smooth plastic lid, after having received a subcutaneous injection of solvent or of product. […] At T10 (10 minutes) and at T20 (20 minutes), a score was attributed to each animal after observation for approximately one minute:
score 0 (4 feet on the floor);
score 1 (animal raised on hind legs, forefeet on the vertical bars);
score 2 (animal gripping on to the bars with all 4 feet).
The total score of the 2 measurements then represents the verticalization value of the animal, which is used for the statistical analysis.

D1 = target: T4, D1 (Rattus norvegicus, UniProt P18901); test: Receptor profile, binding studies (D1); conditions: read-out: Receptor Profile (pKi) D1 (converted)
T4 construct: from tissue
T4 sequence (P18901 whole entry): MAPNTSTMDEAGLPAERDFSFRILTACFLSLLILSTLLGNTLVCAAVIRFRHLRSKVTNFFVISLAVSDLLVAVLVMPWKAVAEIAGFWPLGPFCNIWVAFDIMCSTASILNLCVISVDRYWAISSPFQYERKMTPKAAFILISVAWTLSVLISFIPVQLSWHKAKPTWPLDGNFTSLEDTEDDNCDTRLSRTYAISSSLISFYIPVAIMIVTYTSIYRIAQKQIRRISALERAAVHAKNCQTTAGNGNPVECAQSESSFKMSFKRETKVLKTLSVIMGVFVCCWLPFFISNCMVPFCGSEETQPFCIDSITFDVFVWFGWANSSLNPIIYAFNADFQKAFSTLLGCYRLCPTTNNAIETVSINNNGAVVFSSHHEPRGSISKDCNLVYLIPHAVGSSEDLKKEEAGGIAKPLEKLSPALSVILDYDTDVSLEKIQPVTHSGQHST

schizophrenia = conditions: cited from earlier work
[4] = system: adrenergic (α1) receptors; conditions: cited from earlier work
5-HT1A receptors = conditions: unlike haloperidol; cited from earlier work
[5] = rats, s.c. 30 min before, D-amphetamine 2.5 mg/kg i.p., 1 hour, Inhibitory Dose50, 95% confidence limits
[6] = mice, s.c. 30 min before, apomorphine 0.75 mg/kg s.c., Inhibitory Dose50, 95% confidence limits

T1 sequence (P14842 whole entry): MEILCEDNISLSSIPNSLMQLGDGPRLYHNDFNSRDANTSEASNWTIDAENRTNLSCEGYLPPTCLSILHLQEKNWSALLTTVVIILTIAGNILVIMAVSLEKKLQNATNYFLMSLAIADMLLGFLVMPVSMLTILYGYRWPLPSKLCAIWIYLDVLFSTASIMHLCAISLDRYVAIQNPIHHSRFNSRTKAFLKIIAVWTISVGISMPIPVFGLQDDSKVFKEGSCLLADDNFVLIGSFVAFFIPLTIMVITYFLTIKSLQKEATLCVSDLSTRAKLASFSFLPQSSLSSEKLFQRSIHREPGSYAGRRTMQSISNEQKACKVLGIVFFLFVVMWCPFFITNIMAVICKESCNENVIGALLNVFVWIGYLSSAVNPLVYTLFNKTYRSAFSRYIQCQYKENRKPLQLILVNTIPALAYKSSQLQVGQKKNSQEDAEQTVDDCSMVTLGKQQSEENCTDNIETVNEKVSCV

| Structure (SMILES) | Ki (5-HT2A) [nM] | Ki (5-HT1A) [nM] | ED50 [1, 5] [mg/kg] | Ki (D2) [nM] | ED50 at 0.5 h [2] [mg/kg] | Ki (5-HT2C) [nM] | ED50 [3, 6] [mg/kg] | Ki (D1) [nM] | also measured |
| --- | --- | --- | --- | --- | --- | --- | --- | --- | --- |
| O=C(CC1CCN(CCOc2cccc3c2OCCO3)C1)c1ccc(F)cc1 (single isomer, unassigned) [Example 5, 5-{2-[3-(4-Fluorobenzoylmethyl)pyrrolidin-1-yl]ethoxy}-1,4-benzodioxane hydrochloride, (+) isomer] | 3.31 | 4.79 | 2.8 | 46.8 | > 40 | 9.33 | 0.26 | 275 | Receptor Profile (pKi) α1 (α1; listed as ex. 5): 8.19 |
| O=C(CC1CCN(CCOc2cccc3c2OCCO3)C1)c1ccc(F)cc1 (single isomer, unassigned) [Example 6, 5-{2-[3-(4-Fluorobenzoylmethyl)pyrrolidin-1-yl]ethoxy}-1,4-benzodioxane hydrochloride, (-) isomer] | 2.4 | 3.63 |  | 53.7 |  | 6.61 |  | 204 | Receptor Profile (pKi) α1 (α1; listed as ex. 6): 8.93; Locomotion (Amphetamine) DI50 ([1]; rats, s.c. 30 min before, D-amphetamine 2.5 mg/kg i.p., 1 hour, Inhibitory Dose50, 95% confidence limits, listed as Ex. 6): 1.94 mg/kg; Verticalization (Apomorphine) DI50 ([3]; mice, s.c. 30 min before, apomorphine 0.75 mg/kg s.c., Inhibitory Dose50, 95% confidence limits, listed as Ex. 6): 0.25 mg/kg |
| CN1CCN(C2=Nc3cc(Cl)ccc3Nc3ccccc32)CC1 [Clozapine, clozapine] |  |  | 12.8 |  |  |  | 2.22 |  | toxicity in the general treatment of schizophrenic states (schizophrenia; human, in vivo): on account of its toxicity, clozapine cannot be envisaged in the general treatment of schizophrenic states; extrapyramidal syndrome (schizophrenia; schizophrenia): appears not to bring about an extrapyramidal syndrom; affinity for the adrenergic (α1) receptors [4]: relatively high affinity; ED50 at 0.5 h ([2]; rats, s.c. 30 min before, dose inducing catalepsy for an average of 15 seconds (50% of maximum), read-out: Induction of the catalepsy DE50): > 40 mg/kg; affinity for the 5-HT1A receptors (5-HT1A receptors): a certain affinity for the 5-HT1A receptors |
| O=C(CC1CCN(CCOc2cccc3c2OCCO3)C1)c1ccc(F)cc1 (stereo not shown) [Example 2, 5-{2-[3-(4-Fluorobenzoylmethyl)pyrrolidin-1-yl}-1,4-benzodioxane hydrochloride] | 3.98 | 4.9 | 2.17 | 43.7 | > 40 | 7.94 | 0.28 | 251 | Receptor Profile (pKi) α1 (α1): 8.61 |
| Cl.Fc1ccc2c(CC3CCN(CCOc4cccc5c4OCCO5)C3)n[nH]c2c1 (stereo not shown) [Example 7, 5-{2-[3-[(6-Fluoro-1H-indazol-3-yl)methyl]pyrrolidin-1-yl]ethoxy}-1,4-benzodioxane hydrochloride] | 21.9 | 1.7 |  | 53.7 |  | 93.3 | 0.41 |  |  |
| Cl.Fc1ccc2c(CC3CCN(CCOc4cccc5c4OCCO5)C3)noc2c1 (stereo not shown) [Example 8, 5-{2-[3-[(6-Fluoro-1,2-benzisoxazol-3-yl)methyl]pyrrolidin-1-yl]ethoxy}-1,4-benzodioxane hydrochloride] | 13.2 | 3.89 |  | 257 |  | 95.5 | ~0.63 |  |  |
| O=C(CCCN1CCC(O)(c2ccc(Cl)cc2)CC1)c1ccc(F)cc1 [Haloperidol, haloperidol, reference compound] |  |  |  |  | 0.156 |  |  |  | effectiveness for the productive symptoms (such as fabulation and hallucinations) (schizophrenia; schizophrenia): quite good care for the productive symptoms; effectiveness with regard to deficiency symptoms (such as social withdrawal) (schizophrenia; schizophrenia): very poor; extrapyramidal syndrome (schizophrenia; schizophrenia): induce an extrapyramidal syndrome of Parkinson type; ED50 [1]: 0.043 mg/kg; ED50 [3]: 0.013 mg/kg |
